According to article PMC10328120 (Nature, 2022):
Like-named read-outs stand apart in the source and are kept apart here.

Assays:
[1] = molecular target: T1, μOR (Homo sapiens, UniProt P35372); experiment: cell-based; type: cell-based
[2] = molecular target: T1, μOR; experiment: cell-based; type: cell-based; details: for Emax: read-out: β-arr1 Emax % ± SEM
[3] = molecular target: T1, μOR; experiment: cell-based; type: cell-based; remark: listed apart in the source
[4] = system: C57BL/6J mice; details: mouse, in vivo
[5] = system: C57BL/6J mice; details: mouse, in vivo; remark: listed apart in the source
[6] = system: mouse; details: in vivo
[7] = system: mouse; details: in vivo; remark: listed apart in the source
[8] = system: C57BL/6J mice; details: mouse, in vivo; remark: listed apart in the source
[9] = system: mouse; details: in vivo; remark: listed apart in the source

T1 sequence (P35372 whole entry): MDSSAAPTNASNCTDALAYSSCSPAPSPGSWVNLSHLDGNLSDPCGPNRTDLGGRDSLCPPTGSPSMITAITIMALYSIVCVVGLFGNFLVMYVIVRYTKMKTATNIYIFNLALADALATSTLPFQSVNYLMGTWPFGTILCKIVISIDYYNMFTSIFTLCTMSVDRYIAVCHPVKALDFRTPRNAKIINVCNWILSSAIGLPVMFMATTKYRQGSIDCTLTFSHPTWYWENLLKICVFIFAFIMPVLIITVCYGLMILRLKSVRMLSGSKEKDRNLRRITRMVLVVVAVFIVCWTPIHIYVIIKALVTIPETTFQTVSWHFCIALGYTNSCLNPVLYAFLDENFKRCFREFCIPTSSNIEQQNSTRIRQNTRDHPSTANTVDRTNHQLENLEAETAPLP

Compound	Gz Emax % ± SEM [1]	β-arrestin-1 recruitment, maximum value [2]	β-arrestin-1 recruitment, median value [2]	β-arrestin-1 recruitment, minimum value [2]	β-arrestin-2 recruitment, maximum value [3]	β-arrestin-2 recruitment, median value [3]	β-arrestin-2 recruitment, minimum value [3]	Emax ([1]; read-out: G0a Emax % ± SEM)	Emax ([1]; read-out: G0b Emax % ± SEM)	Emax ([1]; read-out: Gi2 Emax % ± SEM)	Emax ([1]; read-out: Gi3 Emax % ± SEM)	Emax ([1]; read-out: Gz Emax % ± SEM)	Emax [2]	β-arr2 Emax % ± SEM [3]	Emax ([1]; read-out: Gi1 Emax % ± SEM)	also measured
CC[C@@H]1CN2CC[C@@]3(O)C(=Nc4cccc(OC)c43)[C@@H]2C[C@@H]1/C(=C\OC)C(=O)OC [7-OH, 7-hydroxymitragynine]	73 ± 2.8%	0.3%	−1.4%	−8.0%	25.2%	−2.4%	−13.1%	–	–	–	–	–	–	–	–	G0a Emax % ± SEM [1]: 65 ± 4.9%; G0b Emax % ± SEM [1]: 56 ± 3.5%; Gi1 Emax % ± SEM [1]: 31 ± 4.9%; Gi2 Emax % ± SEM [1]: 53 ± 5.1%; Respiratory effect ([4]; sc): respiratory depression similar to that caused by morphine
C[C@@H](NC(=O)[C@@H](N)Cc1ccc(O)cc1)C(=O)NCC(=O)N(C)[C@@H](Cc1ccccc1)C(=O)NCCO [DAMGO]	–	100%	100%	100%	100%	100%	100%	–	–	–	–	–	–	–	–	–
CN1CC[C@]23c4c5ccc(O)c4O[C@H]2[C@@H](O)C=C[C@H]3[C@H]1C5 [Morphine]	–	–	–	–	–	–	–	–	–	–	–	–	–	–	–	ED50 95% confidence interval [5]: 4.4 to 8.43 nmol; Median antinociceptive dose (ED50) [5]: 6.6 nmol; Antinociception in writhing assay [6]: significant antinociception compared with vehicle or saline; Number of writhes over 15 min, maximum [6]: 32; Number of writhes over 15 min, median [6]: 0; Number of writhes over 15 min, minimum [6]: 0; Antinociception in formalin assay [7]: significant antinociception compared with vehicle or saline; Formalin assay response, maximum [7]: 95 s; Formalin assay response, median [7]: 7 s; Formalin assay response, minimum [7]: 1 s; Ambulations (locomotor effect) [8]: hyperlocomotion; Breath rates [4]: decrease; Post-conditioning (post-CPP), maximum [9]: 819 s; Post-conditioning (post-CPP), median [9]: 154 s; Post-conditioning (post-CPP), minimum [9]: -299 s; Pre-conditioning (pre-CPP) difference in time on drug-paired side, minimum [9]: -542 s; Pre-conditioning (pre-CPP), maximum [9]: 413 s; Pre-conditioning (pre-CPP), median [9]: -23 s
COc1ccc2c3c1O[C@H]1C(=O)CC[C@@]4(O)[C@@H](C2)N(C)CC[C@]314 [Oxycodone]	full agonist	–	–	–	–	–	–	102 ± 5.2%	110 ± 3.4%	83 ± 5.7%	75 ± 3.8%	102 ± 4.9%	81 ± 7.9%	80 ± 3.9%	–	–
CC(C)=CCN1CCC2(C)c3cc(O)ccc3CC1C2C (stereo not drawn) [Pentazocine]	full agonist	–	–	–	–	–	–	89 ± 4%	89 ± 3.2%	78 ± 3.8%	73 ± 2.3%	103 ± 1.5%	7 ± 4.51%	–	75 ± 1.8%	Emax ([3]; read-out: β-arr2 Emax % ± SEM): 13 ± 4.04%
COc1ccsc1CNCC[C@@]1(c2ccccn2)CCOC2(CCCC2)C1 [TRV130]	–	–	–	–	–	–	–	67 ± 5.3%	76 ± 4.4%	58 ± 4.2%	45 ± 3.3%	98 ± 2.2%	–	26 ± 5.9%	58 ± 3.8%	–
